Test results: patent EP4663632A1, “COMPOUNDS USEFUL FOR THE MODULATION OF THE ACTIVITY OF STING” (Sulis Therapeutics ApS, priority 2024, dated 2025)
Where “and” joins values, the source holds several entries; their conditions need not be identical. Equal entries are not always repeated.

Columns and labels:
[1] = molecular target: T1, STING (Homo sapiens, UniProt Q86WV6); test: Inhibition of STING-agonist-induced IFN-β release in H596 cells (H596 STING inhibition assay); type: cell-based; conditions: 24h with compound, then 0.3 µM GSK STING agonist, 6h; ELISA
T1 sequence (Q86WV6 whole entry): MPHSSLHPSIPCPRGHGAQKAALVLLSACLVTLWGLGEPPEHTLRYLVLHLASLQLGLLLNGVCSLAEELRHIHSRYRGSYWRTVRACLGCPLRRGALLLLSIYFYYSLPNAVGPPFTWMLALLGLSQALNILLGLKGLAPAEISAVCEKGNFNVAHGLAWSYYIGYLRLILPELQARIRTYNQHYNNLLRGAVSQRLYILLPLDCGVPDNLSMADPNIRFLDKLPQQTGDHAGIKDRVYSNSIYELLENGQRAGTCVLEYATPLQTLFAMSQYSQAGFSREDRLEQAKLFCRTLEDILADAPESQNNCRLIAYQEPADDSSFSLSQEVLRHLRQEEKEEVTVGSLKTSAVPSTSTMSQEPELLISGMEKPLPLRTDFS
Method: Cell supernatants were analysed for IFN-β release using DuoSet human IFN-β ELISA (R&D systems, DY-814) following manufactures protocol except using 96-well, half-volume plates from Corning and subsequently use half volume for all steps throughout the protocol. In brief, plates were coated o/n with a 130x dilution of capturing antibody in PBS. Wells were washed 3x with PBS-T20 followed by blocking with 1% BSA diluted in TBS-T20 for 1h. Wells were washed 3x with PBS-T20 and standards (n=2) and samples (n=3) were added to the plate and incubated for 2h at rt. Wells were washed 3x with PBS-T20 and detection antibody diluted 1:60 in 1% BSA in PBS was added to each well and incubated for 2h at rt. Plates were washed 3x with PBS-T20 and Streptavidin-HRP diluted 1:40 in 1% BSA in PBS was added pr well and incubated for 30 min at rt. The wells were washed 4x with PBS-T20 and TMB One Substrate (Promega) was added and incubated for 5-10 min in the dark. When fully developed, 1 mmol/L Sulfuric acid was added to stop the reaction. Signals were measured using BioTek Synergy H1 plate reader at 450nm and 570nm (reference).
Raw data values were quantified based on the standard curve using blank subtracted Δ450nm-570nm values generated using the Gen5 software connected to the plate reader. Concentrations were plotted into GraphPad Prism to calculate EC50 values using a 4-parameter non-linear regression fitting curve, bottom constrains set for >0.
To determine cellular effects of test compounds, we assessed inhibition of STING-agonist-induced IFN-β release in H596 cells (ATCC, HTB-178). Cells were seeded at a density of 25.000 cells/well in 96-well Nunclon Delta surface treated culture plate in RPMI-1640 growth medium (supplemented with 10% FBS, 1% Pen-strep). Cells were incubated over-night at 37°C 5% CO2 to allow adhesion. Next morning growth medium was renewed and a 10x concentration, 3-step dilution series of test compounds diluted in growth medium (5% DMSO) were added to the appropriate well. Final DMSO concentration was 0.5%. Cells were further incubated for 24h followed by incubation with a 10x concentration of GSK STING agonist (CAS number: 2138299-34-8), final concentration was 0.3 µM. Cells culture plates were further incubated, and supernatants were harvested after 6h and immediately stored at -20°C until determination of IFN-β release.
For ELISA and data analysis, the methods described above for HFF-1 cells were applied.

[2] = molecular target: C-terminal domain (CTD) of human STING (Homo sapiens, UniProt Q86WV6); test: STING binding FP assay III; set-up: recombinant human STING protein (155-379); conditions: 10 nM STING (FP assay III according to the text); read-out: STING binding FP assay II, IC50
Chain of C-terminal domain (CTD) of human STING (Q86WV6 155-379): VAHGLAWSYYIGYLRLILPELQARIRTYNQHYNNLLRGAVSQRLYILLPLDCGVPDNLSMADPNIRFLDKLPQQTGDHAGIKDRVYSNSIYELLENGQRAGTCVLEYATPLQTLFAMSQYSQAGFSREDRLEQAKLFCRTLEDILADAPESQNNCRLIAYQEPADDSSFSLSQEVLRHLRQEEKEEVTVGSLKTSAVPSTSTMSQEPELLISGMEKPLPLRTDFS
How it was run: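 FP competition assay using 10 nM recombinant human STING (155-379) and 4 nM fluorescein-labelled STING ligand in 150 mM NaCl, 50 mM HEPES pH 7.5, 1 mM DTT with Tween-20. Plates were incubated 20 min at room temperature and read at Ex 485/Em 528 nm. IC50 values came from four-parameter fits.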

[3] = molecular target: T1, STING; test: Western Blot analysis for STING degradation (DC50) in HFF-1 cells; type: cell-based; set-up: host or cells: HFF-1 human foreskin fibroblasts; conditions: 24h; reference protein vinculin
Method: To assess STING degradation in human foreskin fibroblasts HFF-1 cells (ATCC, SCRC-1041) cells were seeded at a density of 60.000 cells/well in 24-well Nunclon Delta surface treated culture plate in DMEM growth medium (supplemented with 10% FBS, 1% Pen-strep). Cells were incubated over-night at 37°C 5% CO2 to allow adhesion. Next day growth medium was renewed and a 5x concentration of test compounds (2.5% DMSO) diluted in growth medium were added to the appropriate well. The final DMSO concentration were 0.5%. Cell culture plates were returned to the incubator for additional 24h.
(§1) For cell lysing for Western Blot analysis cell culture plates were brought to ice, supernatant was removed by aspiration and cells washed 2x in ice-cold DPBS. Cells were lysed in 65 µL of RIPA buffer supplemented with cOmplete ULTRA Tablets protease inhibitor cocktail, PIERCE Phosphatase inhibitor mini tablet, Benzonase and 10mM NaF for 20 min on ice. Lysates were collected, cleared by centrifugation (13000xg for 10 min at 4°C). Samples were either analysed directly or stored at -80°C until analysis.
(§2) For Western Blotting, total protein concentration in each lysate was determined using PIERCE Gold BCA Assay kit according to manufactures protocol. 6 µg of total protein was mixed with 2x Laemmli buffer containing DTT, boiled for 5 min at 95°C, cooled on ice and loaded into each well of a 4-20% Criterion TGX gel. Proteins were separated by electrophoresis, by running for 1h at 150V. After separation proteins were blotted onto a PVDF membrane by semi-dry transfer using Trans-Blot turbo system at pre-defined BioRad MIDI protocol; 25V, 1A (fixed) for 30 min. Membranes were blocked for 1h in 5% skim milk in TBS-T20 on a rocker at room temperature followed by washing and exposure to primary antibodies against human STING 1:1000 (Cell Signalling, #13647) or loading controls Vinculin 1:1000 (Cell Signalling, #13901) or beta-Actin 1:10000 (Sigma, A5441) all diluted in 5% BSA in TBS-T20. Membranes were probed over night at 4°C on a rocker. Membranes were washed 3x in TBS-T20 followed by exposure to secondary HRP-conjugated anti-rabbit antibody or HRP-conjugated anti-mouse antibody diluted 1:10000 in 5% skim milk in TBS-T20 as appropriate. Membranes were incubated for 1h at room temperature on a rocker, then washed 3x in TBS-T20.
(§3) For generating DC50 values, the intensity of individual bands was measured using imaged and expression levels were calculated as a ratio of STING intensities vs. Reference protein intensities and normalized to DMSO control. The normalized ratios were plotted on a XY curve in GraphPad Prism where DC50 was estimated using a 4-parameter non-linear regression fitting curve.

[4] = molecular target: T1, STING; test: Western Blot analysis for STING degradation in H596 cells; type: cell-based; conditions: 24h; reference protein beta-actin
Method: as §1, §2, §3
To assess STING degradation in H596 cells (ATCC, HTB-178) cells were seeded at a density of 100.000 cells/well in 24-well Nunclon Delta surface treated culture plate in RPMI-1640 growth medium (supplemented with 10% FBS, 1% Pen-strep). Cells were incubated over-night at 37°C 5% CO2 to allow adhesion. Next day growth medium was renewed and a 5x concentration of test compounds (2.5% DMSO) diluted in growth medium were added to the appropriate well. Final DMSO concentration was 0.5%. Cell culture plates were returned to the incubator for additional 24h. Final test compound concentrations were 0.22 µM, 0.67 µM, 2 µM and 6 µM.
For cell lysis, western blotting and data analysis, the methods described above for HFF-1 cells were applied.

[5] = molecular target: T1, STING; test: Western Blot analysis of inhibition of STING activation in HFF-1 cells; type: cell-based; set-up: host or cells: HFF-1 human foreskin fibroblasts; conditions: agonist only (-): 300 nM diABZI c3 or 8 µg/mL cGAMP
Method: To assess whether S1 STING ligands inhibit STING activation, primary human skin fibroblasts (Figure 5) or HFF-1 cells (Figure 6) were treated with various compounds which comprise only an S1 ligand domain and a Linker domain before undergoing Western Blot analysis as described below.
The cells were lysed and analysed on WB. […] The WB membrane was probed for p-STING, STING, p-IRF3, p-TBK1, and Vinculin.

[6] = molecular target: T1, STING; test: Western Blot analysis of STING phosphorylation in human fibroblast cells (STING agonism); type: cell-based; set-up: host or cells: HFF-1 human foreskin fibroblasts; conditions: control, 300nM diABZI C3 alone
Method: Human fibroblast were treated with a titration of E22, E9, E14 and E16 (7.2µM-3.6nM) for 24h prior to cell lysis and subsequently total STING, pSTING and Vinculin were assessed by western blot using rabbit anti-STING (1:1000), anti-pSTING (1:1000), anti-Vinculin (1:1000) and 2nd anti-rabbit-HRP (1:10.000) or anti-mouse-HRP (1:7500). Proteins were visualized using ImageQuant800. Control cells included untreated cells and cells treated with 300nM diABZI C3.

[7] = molecular target: T1, STING; test: Inhibition of STING-agonist-induced IFN-β and CXCL10 release by Compounds A9 and A11; type: cell-based; set-up: host or cells: HFF-1 human foreskin fibroblasts
Method: HFF-1 cells were also assessed for inhibition of STING-agonist-induced IFN-β and CXCL10 release in cells treated with Compounds A9 and A11. […] In contrast, pre-treating cells for 1 to 2 hours prior to diABZI c3, simultaneous treatment with A9 and diABZI c3, or pre-treating cells for 15 minutes with diABZI c3 followed by A9 treatment led to a decrease in the IFN media concentration to ~100 U/mL. […] In contrast, cells pre-treated for 1 to 2 hours prior to diABZI c3, simultaneous treatment with A9 and diABZI c3, or pre-treating cells for 15 minutes with diABZI c3 followed by A9 treatment led to a decrease in the CXCL10 media concentration to […] (Figure 9B, unfiled bars).
In contrast, pre-treating cells for 1 to 2 hours prior to diABZI c3, simultaneous treatment with A11 and diABZI c3, or pre-treating cells for 15 minutes with diABZI c3 followed by A11 treatment led to a decrease in the IFN media concentration to -10 - 20 U/mL. […] In contrast, cells pre-treated for 1 to 2 hours prior to diABZI c3, simultaneous treatment with A11 and diABZI c3, or pre-treating cells for 15 minutes with diABZI c3 followed by A11 treatment led to a decrease in the CXCL10 media concentration to -10 - 20 pg/mL (Figure 9B; filled bars).

[8] = molecular target: T2, STING (Mus musculus, UniProt Q3TBT3); test: IFN-β secretion from mouse RAW264.7 cells treated with diABZI; type: cell-based; set-up: endogenous in cells; host or cells: RAW264.7 mouse cells; conditions: 1.8 µM diABZI c3 only
T2 sequence (Q3TBT3 1-378): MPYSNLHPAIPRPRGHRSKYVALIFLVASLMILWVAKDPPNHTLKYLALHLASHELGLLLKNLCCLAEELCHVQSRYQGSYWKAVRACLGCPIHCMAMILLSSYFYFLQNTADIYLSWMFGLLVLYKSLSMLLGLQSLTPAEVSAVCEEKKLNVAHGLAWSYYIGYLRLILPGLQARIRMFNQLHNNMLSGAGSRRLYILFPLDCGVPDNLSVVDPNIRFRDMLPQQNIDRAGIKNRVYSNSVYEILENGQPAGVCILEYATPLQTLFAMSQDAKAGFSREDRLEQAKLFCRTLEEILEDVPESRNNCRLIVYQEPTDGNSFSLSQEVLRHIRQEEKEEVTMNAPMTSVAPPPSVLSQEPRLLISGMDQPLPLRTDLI
Method: As expected, RAW264.7 cells treated with 1.8 µM diABZI c3 increased IFN-β secretion, resulting in a media concentration of around 1000 pg/mL. In contrast, cells treated with 1.8 µM diABZI c3 and 0.05 µM Example compounds 14, 16 or 24 reduced this expression to approximately 500 pg/mL.

Row | EC50 [1] [nM] | IC50 [2] [nM] | DC50 [4] [nM] | STING phosphorylation (pSTING) [6] | CXCL10 media concentration ([7]; cells treated with diABZI c3 alone (0.3 µM)) | IFN media concentration ([7]; cells treated with only diABZI c3 (0.3 µM), tris(hydrochloride)) | IFN-β media concentration [8] | SMILES | DC50 [3] [nM] | phosphorylation of STING, IRF3 and TBK1 [5]
1 | < 200 | 7.1 | < 200 |  |  |  |  | CCn1nc(C)cc1C(=O)N=c1n(C)c2cc(C(N)=O)ccc2n1CCC(CCn1c(=NC(=O)c2cc(C)nn2CC)n(C)c2cc(C(N)=O)ccc21)OCC(=O)NCCOCCOCCOCCOCCC(=O)N1CCN(C(=O)CCC(=O)NCCCCOc2cc(-c3scnc3C)ccc2CNC(=O)[C@@H]2C[C@@H](O)CN2C(=O)[C@@H](NC(=O)C2(F)CC2)C(C)(C)C)CC1 (some centres unmarked) [Example 19] |  | 
2 | < 200 | 2.7 | < 200 |  |  |  |  | CCn1nc(C)cc1C(=O)N=c1n(C)c2cc(C(N)=O)ccc2n1CCC(CCn1c(=NC(=O)c2cc(C)nn2CC)n(C)c2cc(C(N)=O)ccc21)OCC(=O)NCCOCCOCCOCCOCCC(=O)N1CCN(C(=O)CCOCCC(=O)NCCCCOc2cc(-c3scnc3C)ccc2CNC(=O)[C@@H]2C[C@@H](O)CN2C(=O)[C@@H](NC(=O)C2(F)CC2)C(C)(C)C)CC1 (some centres unmarked) [Example 20] |  | 
3 |  |  |  | STING was phosphorylated | ~ 60 pg/mL | ~ 200 U/mL and ~ 100 U/mL | around 1000 pg/mL | CCn1nc(C)cc1C(=O)Nc1nc2cc(C(N)=O)cc(OC)c2n1C/C=C/Cn1c(NC(=O)c2cc(C)nn2CC)nc2cc(C(N)=O)cc(OCCCN3CCOCC3)c21.Cl.Cl.Cl [diABZI c3, (E)-1-(4-(5-carbamoyl-2-(1-ethyl-3-methyl-1H-pyrazole-5-carboxamido)-7-(3-morpholinopropoxy)-1H-benzo[d]imidazol-1-yl)but-2-en-1-yl)-2-(1-ethyl-3-methyl-1H-pyrazole-5-carboxamido)-7-methoxy-1H-benzimidazole-5-carboxamide tris(hydrochloride), reference compound] |  | STING was phosphorylated and activated as were the downstream STING effectors IRF3 and TBK1

Row | SMILES | EC50 [1] [nM] | IC50 [2] [nM] | DC50 [4] [nM] | STING phosphorylation (pSTING) [6] | CXCL10 media concentration ([7]; cells treated with diABZI c3 alone (0.3 µM)) | IFN media concentration ([7]; cells treated with only diABZI c3 (0.3 µM), tris(hydrochloride)) | IFN-β media concentration [8] | DC50 [3] [nM] | phosphorylation of STING, IRF3 and TBK1 [5]
4 | CCn1nc(C)cc1C(=O)N=c1n(C)c2cc(C(N)=O)ccc2n1CCC(CCn1c(=NC(=O)c2cc(C)nn2CC)n(C)c2cc(C(N)=O)ccc21)OCC(=O)NCCOCCOCCOCCOCCC(=O)NCCCCC(=O)N[C@H]1C[C@@H](C(=O)N[C@@H]2CCCc3ccccc32)N(C(=O)[C@@H](NC(=O)[C@H](C)NC)C2CCCCC2)C1 (some centres unmarked) [Example 10] | 200 to 1000 | 4.5 |  |  |  |  |  | < 200 | 
